# What was measured:
# [1] = molecular target: T1, Peroxisome proliferator-activated receptor alpha (Homo sapiens) (UniProt Q07869); assay: Agonist activity at human PPARalpha by transactivation assay relative to WY-14643; format: functional
# T1 sequence (whole entry): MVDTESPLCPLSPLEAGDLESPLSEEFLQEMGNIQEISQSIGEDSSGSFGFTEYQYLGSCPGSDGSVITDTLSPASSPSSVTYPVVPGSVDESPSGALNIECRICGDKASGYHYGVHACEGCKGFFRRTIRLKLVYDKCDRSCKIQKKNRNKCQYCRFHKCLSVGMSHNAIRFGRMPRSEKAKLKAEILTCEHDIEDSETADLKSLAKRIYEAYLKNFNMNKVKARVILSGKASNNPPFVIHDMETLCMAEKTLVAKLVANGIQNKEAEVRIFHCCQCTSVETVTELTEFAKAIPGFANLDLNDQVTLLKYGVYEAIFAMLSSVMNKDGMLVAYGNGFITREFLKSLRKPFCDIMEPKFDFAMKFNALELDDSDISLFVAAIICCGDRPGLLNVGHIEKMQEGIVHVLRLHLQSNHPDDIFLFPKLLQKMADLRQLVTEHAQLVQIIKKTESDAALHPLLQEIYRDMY
# [2] = molecular target: T2, Peroxisome proliferator-activated receptor delta (Homo sapiens, UniProt Q03181); assay: Agonist activity at human PPARdelta by transactivation assay; format: functional
# T2 sequence (Q03181 whole entry): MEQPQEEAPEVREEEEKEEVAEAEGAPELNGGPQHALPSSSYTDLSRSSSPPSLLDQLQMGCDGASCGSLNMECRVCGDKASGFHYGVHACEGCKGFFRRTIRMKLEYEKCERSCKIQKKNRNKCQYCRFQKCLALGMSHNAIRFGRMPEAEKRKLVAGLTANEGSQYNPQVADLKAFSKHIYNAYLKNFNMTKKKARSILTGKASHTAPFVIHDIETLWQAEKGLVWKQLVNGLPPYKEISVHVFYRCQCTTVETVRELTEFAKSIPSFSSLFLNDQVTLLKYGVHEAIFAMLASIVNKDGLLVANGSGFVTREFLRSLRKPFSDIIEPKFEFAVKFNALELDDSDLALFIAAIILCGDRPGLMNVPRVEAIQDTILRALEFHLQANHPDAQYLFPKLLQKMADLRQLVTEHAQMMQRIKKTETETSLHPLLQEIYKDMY
# [3] = Cmax in rat at 2.5 mg/kg, po; format: ADME, organism-based; design: dose 2.5 mg/kg, route oral; conditions: in vivo
# [4] = Half life in rat at 2.5 mg/kg, po; format: ADME, organism-based; design: dose 2.5 mg/kg, route oral; conditions: in vivo
# [5] = Oral bioavailability in rat at 2.5 mg/kg; format: ADME, organism-based; conditions: in vivo
# [6] = molecular target: T3, Peroxisome proliferator-activated receptor alpha (Homo sapiens, UniProt Q07869); assay: Agonist activity at human PPARalpha by transactivation assay; format: functional
# T3 sequence (Q07869 whole entry): T1 sequence (whole entry)
# [7] = molecular target: T4, Peroxisome proliferator-activated receptor gamma (Homo sapiens, UniProt P37231)
# T4 sequence (P37231 whole entry): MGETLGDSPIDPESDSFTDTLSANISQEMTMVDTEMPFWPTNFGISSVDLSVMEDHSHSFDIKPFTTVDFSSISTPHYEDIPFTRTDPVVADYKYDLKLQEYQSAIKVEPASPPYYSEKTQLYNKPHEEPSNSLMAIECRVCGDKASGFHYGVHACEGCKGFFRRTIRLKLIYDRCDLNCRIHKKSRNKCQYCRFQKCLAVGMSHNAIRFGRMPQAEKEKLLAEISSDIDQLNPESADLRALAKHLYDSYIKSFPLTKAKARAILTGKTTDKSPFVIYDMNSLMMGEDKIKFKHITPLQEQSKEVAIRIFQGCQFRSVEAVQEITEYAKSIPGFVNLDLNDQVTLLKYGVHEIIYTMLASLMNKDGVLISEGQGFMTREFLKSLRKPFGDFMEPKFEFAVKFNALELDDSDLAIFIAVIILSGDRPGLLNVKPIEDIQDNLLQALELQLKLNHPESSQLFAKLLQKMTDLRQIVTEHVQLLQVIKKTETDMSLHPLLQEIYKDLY
# Description: Agonist activity at human PPARgamma by transactivation assay
SMILES,Activity [1],EC50 [2],Cmax [3],half-life [4],bioavailability [5],EC50 [6],EC50 [7]
CCO[C@@H](Cc1ccc(OC/C=C/c2cc(OC)cc(OC)c2)cc1)C(=O)O,186%,13000 nM,,,,,
CCOc1cc(/C=C/COc2ccc(C[C@H](OCC)C(=O)O)cc2)cc(OCC)c1,197%,7900 nM,6160 ng/mL,2.17 h,86%,20 nM,200 nM
CCO[C@@H](Cc1ccc(OC/C=C/c2cc(OCC(F)(F)F)cc(OCC(F)(F)F)c2)cc1)C(=O)O,149%,4000 nM,,,,2 nM,800 nM
CCO[C@@H](Cc1ccc(OC/C=C/c2cc(-c3ccccc3)cc(-c3ccccc3)c2)cc1)C(=O)O,30%,4000 nM,,,,20 nM,200 nM
CCO[C@@H](Cc1ccc(OC/C=C/c2ccccc2)cc1)C(=O)O,169%,18000 nM,,,,1600 nM,8000 nM
CCO[C@@H](Cc1ccc(OC/C=C/c2cc(OC3CCCC3)cc(OC3CCCC3)c2)cc1)C(=O)O,135%,15000 nM,,,,20 nM,300 nM
CCO[C@@H](Cc1ccc(OC/C=C/c2cc(C#Cc3ccccc3)cc(C#Cc3ccccc3)c2)cc1)C(=O)O,108%,,,,,500 nM,3100 nM
CCO[C@@H](Cc1ccc(OC/C=C/c2cc(OC(=O)c3ccccc3)cc(OC(=O)c3ccccc3)c2)cc1)C(=O)O,121%,,,,,50 nM,190 nM
CCO[C@@H](Cc1ccc(OC/C=C/c2cc(OC(C)C)cc(OC(C)C)c2)cc1)C(=O)O,207%,6000 nM,1840 ng/mL,2.42 h,95%,4 nM,80 nM
CCO[C@@H](Cc1ccc(OC/C=C/c2cc(-c3ccc(C(C)(C)C)cc3)cc(-c3ccc(C(C)(C)C)cc3)c2)cc1)C(=O)O,110%,,,,,14000 nM,1000 nM
CCO[C@@H](Cc1ccc(OC/C=C/c2cc(Br)cc(Br)c2)cc1)C(=O)O,121%,20000 nM,,,,300 nM,4100 nM
CCO[C@@H](Cc1ccc(OC/C=C/c2cc(CCc3ccccc3)cc(CCc3ccccc3)c2)cc1)C(=O)O,118%,,,,,30 nM,5100 nM
CCO[C@@H](Cc1ccc(OC/C=C(\C)c2ccc(-c3ccccc3)cc2)cc1)C(=O)O,158%,,,,,500 nM,
CCO[C@@H](Cc1ccc(OC/C=C/c2cc(C(F)(F)F)cc(C(F)(F)F)c2)cc1)C(=O)O,195%,1400 nM,,,,20 nM,400 nM
CCO[C@@H](Cc1ccc(OC/C=C/c2cc(/C=C/c3ccccc3)cc(/C=C/c3ccccc3)c2)cc1)C(=O)O,66%,,,,,90 nM,3000 nM

# Reference: ChEMBL document CHEMBL1139897, “Design of potent PPARalpha agonists” (Bioorg Med Chem Lett, 2007)
